Assay results as given in ChEMBL document CHEMBL4334471, “Discovery of 1,8-disubstituted-[1,2,3]triazolo[4,5-c]quinoline derivatives as a new class of Hippo signaling pathway inhibitors” (Bioorg Med Chem Lett, 2019).

Key:
[1] = test system: A549; test: Upregulation of CYR61 in human A549 cells incubated for 24 hrs by qRT-PCR analysis; assay type: functional, cell-based
[2] = molecular target: AP2-associated protein kinase 1 (Homo sapiens) (UniProt Q2M2I8); test: Inhibition of human AAK1 assessed as residual activity at 10 uM using peptide as substrate incubated for 120 mins in presence of [gamma-33ATP] by scintillation counting based radiometry assay relative to control
[3] = molecular target: NUAK family SNF1-like kinase 1 (Homo sapiens) (UniProt O60285); test: Inhibition of recombinant human ARK5 (2 to end residues) assessed as residual activity at 10 uM using KKKVSRSGLYRSPSMPENLNRPR as substrate incubated for 40 mins in presence of [gamma-33ATP] by scintillation counting based radiometry assay relative to control
NUAK family SNF1-like kinase 1 (Homo sapiens), sequence (O60285 whole entry): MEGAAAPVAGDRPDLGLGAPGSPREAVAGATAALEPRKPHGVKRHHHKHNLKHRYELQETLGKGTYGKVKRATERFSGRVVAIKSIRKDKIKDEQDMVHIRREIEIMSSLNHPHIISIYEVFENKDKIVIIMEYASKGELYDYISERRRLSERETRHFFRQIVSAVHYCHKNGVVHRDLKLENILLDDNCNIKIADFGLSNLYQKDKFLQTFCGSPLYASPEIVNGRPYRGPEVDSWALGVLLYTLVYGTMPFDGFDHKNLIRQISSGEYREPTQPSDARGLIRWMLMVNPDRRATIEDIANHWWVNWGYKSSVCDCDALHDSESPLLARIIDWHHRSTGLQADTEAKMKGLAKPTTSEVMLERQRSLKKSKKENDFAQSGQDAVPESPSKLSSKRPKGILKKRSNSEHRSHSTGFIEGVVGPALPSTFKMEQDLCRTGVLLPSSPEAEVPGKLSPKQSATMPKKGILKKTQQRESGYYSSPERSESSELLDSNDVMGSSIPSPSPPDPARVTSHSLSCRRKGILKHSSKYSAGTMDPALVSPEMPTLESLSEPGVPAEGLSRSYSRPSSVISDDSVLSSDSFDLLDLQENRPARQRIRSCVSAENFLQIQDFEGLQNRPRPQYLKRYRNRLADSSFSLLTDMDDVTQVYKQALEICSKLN

[4] = molecular target: CDK12/Cyclin K (Homo sapiens) (UniProt O75909+Q9NYV4); test: Inhibition of recombinant full length human CDK12/cyclinK assessed as residual activity at 10 uM using RSRSRSRSRSRSR as substrate incubated for 40 mins in presence of [gamma-33ATP] by scintillation counting based radiometry assay relative to control; assay type: protein-complex assay
CDK12/Cyclin K (Homo sapiens), sequence (O75909 whole entry, looked up): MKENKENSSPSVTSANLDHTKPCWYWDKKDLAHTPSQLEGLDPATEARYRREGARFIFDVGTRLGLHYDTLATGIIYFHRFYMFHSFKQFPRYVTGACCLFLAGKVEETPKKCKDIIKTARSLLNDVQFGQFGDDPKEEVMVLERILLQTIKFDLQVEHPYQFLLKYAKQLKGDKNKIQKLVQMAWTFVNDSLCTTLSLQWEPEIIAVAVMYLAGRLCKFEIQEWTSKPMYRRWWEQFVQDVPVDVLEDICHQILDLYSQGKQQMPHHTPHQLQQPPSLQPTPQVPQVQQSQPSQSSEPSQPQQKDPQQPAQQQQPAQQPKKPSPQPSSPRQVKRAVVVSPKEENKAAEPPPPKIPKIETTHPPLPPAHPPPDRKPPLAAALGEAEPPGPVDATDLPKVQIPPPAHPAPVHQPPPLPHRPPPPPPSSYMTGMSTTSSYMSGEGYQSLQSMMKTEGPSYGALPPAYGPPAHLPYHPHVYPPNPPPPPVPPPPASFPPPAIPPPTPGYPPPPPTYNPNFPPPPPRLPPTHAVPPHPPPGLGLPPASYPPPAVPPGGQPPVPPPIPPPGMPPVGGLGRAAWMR
CDK12/Cyclin K (Homo sapiens), sequence (Q9NYV4 whole entry, looked up): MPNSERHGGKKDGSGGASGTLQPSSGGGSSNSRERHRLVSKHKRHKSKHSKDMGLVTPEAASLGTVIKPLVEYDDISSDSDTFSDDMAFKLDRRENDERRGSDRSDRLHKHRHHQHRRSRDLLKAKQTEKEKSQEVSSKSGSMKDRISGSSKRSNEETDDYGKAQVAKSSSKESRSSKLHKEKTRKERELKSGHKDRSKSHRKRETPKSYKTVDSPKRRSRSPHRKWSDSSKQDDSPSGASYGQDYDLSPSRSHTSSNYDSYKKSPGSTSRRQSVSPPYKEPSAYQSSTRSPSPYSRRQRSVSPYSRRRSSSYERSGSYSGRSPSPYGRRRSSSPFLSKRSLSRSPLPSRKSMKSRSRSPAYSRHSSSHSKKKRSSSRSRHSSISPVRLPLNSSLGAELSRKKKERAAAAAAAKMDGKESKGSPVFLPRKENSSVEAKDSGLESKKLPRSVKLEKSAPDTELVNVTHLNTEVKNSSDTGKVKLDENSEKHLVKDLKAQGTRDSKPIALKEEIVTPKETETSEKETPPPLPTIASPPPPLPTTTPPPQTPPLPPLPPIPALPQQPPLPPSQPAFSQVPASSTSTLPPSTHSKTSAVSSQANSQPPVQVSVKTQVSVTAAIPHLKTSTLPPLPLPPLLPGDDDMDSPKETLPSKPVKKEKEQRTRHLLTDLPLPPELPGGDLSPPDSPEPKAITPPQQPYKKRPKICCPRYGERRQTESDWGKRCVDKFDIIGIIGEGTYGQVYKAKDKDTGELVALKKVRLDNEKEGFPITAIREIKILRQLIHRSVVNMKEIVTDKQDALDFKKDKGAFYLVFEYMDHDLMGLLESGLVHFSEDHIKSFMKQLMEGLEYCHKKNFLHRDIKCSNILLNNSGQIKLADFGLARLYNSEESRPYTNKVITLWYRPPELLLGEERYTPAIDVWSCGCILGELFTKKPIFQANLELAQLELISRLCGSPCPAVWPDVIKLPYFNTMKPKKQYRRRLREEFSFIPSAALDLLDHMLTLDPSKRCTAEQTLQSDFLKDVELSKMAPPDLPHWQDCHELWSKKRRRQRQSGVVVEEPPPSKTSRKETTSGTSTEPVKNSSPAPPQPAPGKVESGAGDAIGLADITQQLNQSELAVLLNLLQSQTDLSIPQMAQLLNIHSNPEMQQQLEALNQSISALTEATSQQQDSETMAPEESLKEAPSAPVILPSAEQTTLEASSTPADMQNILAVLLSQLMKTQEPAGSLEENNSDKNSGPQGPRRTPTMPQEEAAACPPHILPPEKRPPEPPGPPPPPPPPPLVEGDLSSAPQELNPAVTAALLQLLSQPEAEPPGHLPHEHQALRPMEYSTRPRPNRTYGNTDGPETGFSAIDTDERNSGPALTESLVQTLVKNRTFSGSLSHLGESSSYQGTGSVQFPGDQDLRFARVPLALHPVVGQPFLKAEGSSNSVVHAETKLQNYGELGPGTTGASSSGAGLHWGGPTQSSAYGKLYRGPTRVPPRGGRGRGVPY

[5] = test system: Serine/threonine-protein kinase Chk2 (Homo sapiens), O96017 [R145W]; test: Inhibition of recombinant human CHK2 R145W mutant (5 to end residues) assessed as residual activity at 10 uM using KKKVSRSGLYRSPSMPENLNRPR as substrate incubated for 40 mins in presence of [gamma-33ATP] by scintillation counting based radiometry assay relative to control
[6] = molecular target: Casein kinase I isoform epsilon (Homo sapiens) (UniProt P49674); test: Inhibition of recombinant human CK1epsilon assessed as residual activity at 10 uM using KRRRALS(p)VASLPGL as substrate incubated for 120 mins in presence of [gamma-33ATP] by scintillation counting based radiometry assay relative to control
[7] = molecular target: Serine/threonine-protein kinase DCLK3 (Homo sapiens) (UniProt Q9C098); test: Inhibition of recombinant human DCAMKL3 (345 to end residues) assessed as residual activity at 10 uM using KKLNRTLSFAEPG as substrate at 40 mins in presence of [gamma-33ATP] by scintillation counting based radiometry assay relative to control
[8] = molecular target: Serine/threonine-protein kinase 17A (Homo sapiens) (UniProt Q9UEE5); test: Inhibition of recombinant human DRAK1 assessed as residual activity at 10 uM using KKLNRTLSFAEPG as substrate at 40 mins in presence of [gamma-33ATP] by scintillation counting based radiometry assay relative to control
[9] = molecular target: Dual specificity tyrosine-phosphorylation-regulated kinase 1A (Homo sapiens) (UniProt Q13627); test: Inhibition of recombinant human DYRK1A assessed as residual activity at 10 uM using RRRFRPASPLRGPP as substrate at 40 mins in presence of [gamma-33ATP] by scintillation counting based radiometry assay relative to control
[10] = test system: Glycogen synthase kinase-3 alpha (Homo sapiens), P49840 [UNDEFINED MUTATION]; test: Inhibition of human GSK-3alpha S449A mutant (2 to end residues) assessed as residual activity at 10 uM using phospho GS2 peptide as substrate after 40 mins by [gamma-33ATP] radiometric assay
Glycogen synthase kinase-3 alpha (Homo sapiens), P49840 [UNDEFINED MUTATION], sequence (P49840 whole entry, looked up, stated change not applied): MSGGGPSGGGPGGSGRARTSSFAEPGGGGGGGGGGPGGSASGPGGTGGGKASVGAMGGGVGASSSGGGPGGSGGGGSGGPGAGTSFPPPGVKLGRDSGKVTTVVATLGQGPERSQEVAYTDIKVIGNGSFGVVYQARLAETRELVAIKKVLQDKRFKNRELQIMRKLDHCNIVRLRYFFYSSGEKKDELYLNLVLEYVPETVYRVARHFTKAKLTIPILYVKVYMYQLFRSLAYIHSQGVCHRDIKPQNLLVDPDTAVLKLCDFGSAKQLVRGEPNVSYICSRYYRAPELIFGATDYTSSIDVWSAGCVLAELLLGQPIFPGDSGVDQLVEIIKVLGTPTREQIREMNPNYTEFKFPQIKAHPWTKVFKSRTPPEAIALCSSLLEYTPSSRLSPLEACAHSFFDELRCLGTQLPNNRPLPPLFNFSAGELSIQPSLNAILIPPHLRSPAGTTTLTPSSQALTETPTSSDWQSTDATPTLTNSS

[11] = test system: Hepatocyte growth factor receptor (Homo sapiens), P08581 [Y1230C]; test: Inhibition of recombinant human MET A1209G/V1290L/Y1248C mutant (974 to end residues) assessed as residual activity at 10 uM using KKKGQEEEYVFIE as substrate incubated for 40 mins in presence of [gamma-33ATP by scintillation counting based radiometry assay relative to control
[12] = molecular target: Ribosomal protein S6 kinase alpha-4 (Homo sapiens) (UniProt O75676); test: Inhibition of recombinant human MSK2 (2 to end residues) assessed as residual activity at 10 uM using GRPRTSSFAEGKK as substrate incubated for 40 mins in presence of [gamma-33ATP by scintillation counting based radiometry assay relative to control
[13] = molecular target: Serine/threonine-protein kinase Nek3 (Homo sapiens) (UniProt P51956); test: Inhibition of recombinant full-length human NEK3 assessed as residual activity at 10 uM using myelin basic protein as substrate measured after 40 mins in presence of [gamma33P]ATP by scintillation counting based radiometry assay relative to control
[14] = test system: RAC-beta serine/threonine-protein kinase (Homo sapiens), P31751 [S474D]; test: Inhibition of recombinant human PKBbeta S474D mutant (120 to end residues) assessed as residual activity at 10 uM using GRPRTSSFAEGKK as substrate incubated for 40 mins in presence of [gamma33P]ATP by scintillation counting based radiometry assay relative to control
[15] = test system: Serine/threonine-protein kinase D1 (Homo sapiens), Q15139 [UNDEFINED MUTATION]; test: Inhibition of recombinant full-length human PKCmu R135A mutant assessed as residual activity at 10 uM using KKLNRTLSVA as substrate incubated for 40 mins in presence of [gamma33P]ATP by scintillation counting based radiometry assay relative to control
Serine/threonine-protein kinase D1 (Homo sapiens), Q15139 [UNDEFINED MUTATION], sequence (Q15139 whole entry, looked up, stated change not applied): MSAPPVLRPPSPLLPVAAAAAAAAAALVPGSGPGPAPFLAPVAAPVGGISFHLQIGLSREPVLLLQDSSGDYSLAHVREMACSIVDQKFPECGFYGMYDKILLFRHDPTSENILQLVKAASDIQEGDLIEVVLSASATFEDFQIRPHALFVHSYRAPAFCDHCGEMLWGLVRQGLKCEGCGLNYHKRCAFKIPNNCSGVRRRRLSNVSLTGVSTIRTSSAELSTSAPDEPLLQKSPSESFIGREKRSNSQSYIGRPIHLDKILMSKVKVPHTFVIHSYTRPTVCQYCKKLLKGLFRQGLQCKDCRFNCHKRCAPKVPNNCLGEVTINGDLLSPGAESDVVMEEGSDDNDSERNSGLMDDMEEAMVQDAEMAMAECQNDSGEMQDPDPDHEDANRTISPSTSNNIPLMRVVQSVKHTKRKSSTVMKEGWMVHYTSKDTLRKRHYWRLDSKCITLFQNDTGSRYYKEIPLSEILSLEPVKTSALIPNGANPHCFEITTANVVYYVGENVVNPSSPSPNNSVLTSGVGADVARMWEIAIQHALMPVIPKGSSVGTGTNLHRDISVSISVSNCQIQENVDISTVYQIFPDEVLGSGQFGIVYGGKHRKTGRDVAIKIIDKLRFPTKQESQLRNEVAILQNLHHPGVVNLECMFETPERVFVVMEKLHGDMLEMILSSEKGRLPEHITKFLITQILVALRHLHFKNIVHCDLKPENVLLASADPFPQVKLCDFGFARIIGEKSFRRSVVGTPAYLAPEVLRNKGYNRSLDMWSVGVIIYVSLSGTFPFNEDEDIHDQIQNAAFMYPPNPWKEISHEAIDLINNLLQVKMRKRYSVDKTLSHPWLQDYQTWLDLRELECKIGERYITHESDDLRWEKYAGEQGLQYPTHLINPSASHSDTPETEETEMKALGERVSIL

[16] = molecular target: Interferon-induced, double-stranded RNA-activated protein kinase (Homo sapiens) (UniProt P19525); test: Inhibition of recombinant human PKR (252 to end residues) assessed as residual activity at 10 uM using RSRSRSRSRSRSRSR as substrate incubated for 40 mins in presence of [gamma33P]ATP by scintillation counting based radiometry assay relative to control
Interferon-induced, double-stranded RNA-activated protein kinase (Homo sapiens), sequence (P19525 whole entry): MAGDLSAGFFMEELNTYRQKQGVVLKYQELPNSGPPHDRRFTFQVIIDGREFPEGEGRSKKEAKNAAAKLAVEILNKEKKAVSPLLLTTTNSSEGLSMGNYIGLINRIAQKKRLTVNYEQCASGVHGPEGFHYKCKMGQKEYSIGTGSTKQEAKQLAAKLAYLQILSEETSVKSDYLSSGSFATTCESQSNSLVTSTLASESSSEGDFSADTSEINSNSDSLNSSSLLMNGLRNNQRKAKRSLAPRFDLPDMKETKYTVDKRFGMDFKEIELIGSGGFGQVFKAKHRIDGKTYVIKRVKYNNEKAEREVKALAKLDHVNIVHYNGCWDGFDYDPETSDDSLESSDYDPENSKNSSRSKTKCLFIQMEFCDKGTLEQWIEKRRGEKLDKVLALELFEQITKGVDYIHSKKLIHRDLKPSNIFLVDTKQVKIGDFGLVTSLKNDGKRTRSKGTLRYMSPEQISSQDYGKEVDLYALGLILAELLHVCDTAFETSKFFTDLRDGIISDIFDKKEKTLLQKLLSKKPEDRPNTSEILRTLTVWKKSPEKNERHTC

[17] = molecular target: Serine/threonine-protein kinase 16 (Homo sapiens) (UniProt O75716); test: Inhibition of human STK16 assessed as residual activity at 10 uM in presence of [gamma33P]ATP by scintillation counting based radiometry assay relative to control
[18] = test system: Angiopoietin-1 receptor (Homo sapiens), Q02763 [Q939H,Q940H,R849W]; test: Inhibition of recombinant human TIE2 Q939H/Q940H/R849W mutant (771 to end residues) assessed as residual activity at 10 uM using EFPIYDFLPAKKK as substrate incubated for 40 mins in presence of [gamma33P]ATP by scintillation counting based radiometry assay relative to control
[19] = molecular target: Testis-specific serine/threonine-protein kinase 3 (Homo sapiens) (UniProt Q96PN8); test: Inhibition of recombinant full-length human TSSK3 assessed as residual activity at 10 uM using AMARAASAAALARRR as substrate incubated for 40 mins in presence of [gamma33P]ATP by scintillation counting based radiometry assay relative to control
Testis-specific serine/threonine-protein kinase 3 (Homo sapiens), sequence (Q96PN8 whole entry, the tested form may be a part): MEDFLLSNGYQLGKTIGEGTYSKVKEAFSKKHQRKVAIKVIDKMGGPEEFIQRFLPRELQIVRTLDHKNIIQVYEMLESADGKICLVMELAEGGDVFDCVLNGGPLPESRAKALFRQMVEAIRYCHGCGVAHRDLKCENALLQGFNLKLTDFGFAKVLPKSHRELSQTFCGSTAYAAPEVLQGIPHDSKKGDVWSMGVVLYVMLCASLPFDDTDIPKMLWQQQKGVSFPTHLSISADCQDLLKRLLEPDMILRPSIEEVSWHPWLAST

[20] = molecular target: Serine/threonine-protein kinase WNK3 (Homo sapiens) (UniProt Q9BYP7); test: Inhibition of recombinant human WNK3 (1 to 434 residues) assessed as residual activity at 10 uM using myelin basic protein as substrate incubated for 40 mins in presence of [gamma33P]ATP by scintillation counting based radiometry assay relative to control
[21] = test system: A549; test: Inhibition of hippo signalling protein in human A549 cells cotransfected with CTGF promoter-driven firefly luciferase and CMV promoter-driven renilla luciferase gene assessed as increase in CTGF expression at 10 uM incubated for 24 hrs by dual-luciferase gene assay relative to control

With `C[C@@H](c1ccccc1)n1nnc2cnc3ccc(-c4cnc5[nH]ccc5c4)cc3c21` the Activity [1] was “Dose-dependent effect”, the Activity [2] was 78% and the Activity [3] was 73%. For the same compound, the Activity [4] was 83%, the Activity [5] was 81% and the Activity [6] was 32%. The Activity [7] was 66%, the Activity [8] was 60% and the Activity [9] was 63%. The Activity [10] was 79%, the Activity [11] was 49% and the Activity [12] was 58%. It also gave an Activity [13] of 73%, an Activity [14] of 61% and an Activity [15] of 93%. The Activity [16] was 81%, the Activity [17] was 59% and the Activity [18] was 103%. It also gave an Activity [19] of 64%, an Activity [20] of 99% and a fold change (FC) [21] of 13.5.
